This is an account of results in patent US20030022812A1, “Treating pain by targeting hyperpolarization-activated, cyclic nucleotide-gated channels” (priority 2001, published 2003).

One experiment relates to Ih in large DRG neurons. The experiment in a line: Whole cell patch clamp of Ih in dissociated large L5 DRG neurons of SNL and control rats. It counts as cell-based, rat. Conditions: Cs+ 3 mM extracellular; ZD7288 50 μM. As for the experimental part: Methods: Rats were prepared according to the above SNL model (L5 ligation). Sham rats were prepared identically, but without resection of the transverse process to avoid nerve trauma, and without nerve ligation. After 7 days, rats were killed by cervical dislocation and the ipsilateral L4 (no ligation) and L5 DRGs were quickly excised with fine forceps under a stereomicroscope and placed in ice cold Tyrode's containing pen/strep antibiotics.
Dissociation and culture of DRG neurons: DRGs from the L5 level of SNL, sham ligated and naive rats, and the L4 level of SNL rats were removed and maintained in ice-cold Tyrode's solution (140 mM NaCl, 4 mM KCl, 2 mM CaCl2, 1.3 mM MgCl2, 10 mM D-glucose, 10 mM HEPES, pH adjusted to 7.4 with NaOH) with additional 2 mM Ca^+2 (Tyrode's) prior to dissociation. […]
Current and voltage signals were detected and filtered at 2 kHz with an Axopatch 1D patch-clamp amplifier (Axon Instruments, Foster City, Calif.), digitally recorded with a DigiData 1200B laboratory interface (Axon Instruments), and PC compatible computer system and stored on magnetic disk for off-line analysis. […]

The next experiment addresses T1, human HCN3 (Homo sapiens, UniProt Q9P1Z3).
T1 construct: expressed in transfected cells; host or cells: HEK293 cells stably transfected with hHCN3-pcDNA3.1 Zeo
T1 sequence (Q9P1Z3 1-774): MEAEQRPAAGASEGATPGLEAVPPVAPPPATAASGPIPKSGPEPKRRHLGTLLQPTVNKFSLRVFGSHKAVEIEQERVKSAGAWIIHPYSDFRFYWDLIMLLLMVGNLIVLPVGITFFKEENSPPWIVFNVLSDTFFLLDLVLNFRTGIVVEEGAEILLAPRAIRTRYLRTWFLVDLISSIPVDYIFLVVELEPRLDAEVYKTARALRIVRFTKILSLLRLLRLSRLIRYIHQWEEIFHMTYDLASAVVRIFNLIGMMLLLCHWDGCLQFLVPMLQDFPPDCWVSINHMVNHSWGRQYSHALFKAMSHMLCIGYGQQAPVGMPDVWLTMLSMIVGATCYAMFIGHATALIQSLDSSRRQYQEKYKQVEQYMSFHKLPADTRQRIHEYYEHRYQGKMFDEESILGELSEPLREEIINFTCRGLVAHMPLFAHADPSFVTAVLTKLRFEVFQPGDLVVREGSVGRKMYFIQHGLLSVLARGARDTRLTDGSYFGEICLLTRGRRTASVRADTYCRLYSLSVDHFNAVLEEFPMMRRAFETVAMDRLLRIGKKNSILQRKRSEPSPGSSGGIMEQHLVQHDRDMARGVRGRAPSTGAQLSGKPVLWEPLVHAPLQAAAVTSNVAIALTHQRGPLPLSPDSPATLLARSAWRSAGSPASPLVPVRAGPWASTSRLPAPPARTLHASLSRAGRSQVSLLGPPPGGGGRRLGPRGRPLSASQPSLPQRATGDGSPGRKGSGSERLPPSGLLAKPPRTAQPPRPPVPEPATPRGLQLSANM
Put plainly: Whole cell patch clamp of HEK293 cells stably expressing human HCN3. It counts as cell-based. Conditions: for reversibility of HCN3 current block: ZD7288: washout of at least 15 min. In general terms: The patch-clamp technique gives a direct electrical read-out from membranes.

Regarding `[Cl-].[Cs+]` [Cs^+, CsCl], the “block of Ih in large DRG neurons” value in the experiment on Ih in large DRG neurons was “efficacious block”. Besides, at human HCN3 (3 mM CsCl), the “block of HCN3 hyperpolarization-induced inward currents” value is given as “completely blocked”. Also, the “reversibility of HCN3 current block” value at human HCN3 is listed as “rapidly reversible”.
For `CCN(c1ccccc1)c1cc(=NC)n(C)c(C)n1.Cl` [ZD7288], in the experiment on Ih in large DRG neurons, the “block of Ih in large DRG neurons” value is on record as “efficacious block”. Moreover, the “block of HCN3 hyperpolarization-induced currents” value on human HCN3 (50 μM, n=3) is 98+/−2%. For the same compound, the “reversibility of HCN3 current block” value at human HCN3 was “did not reverse”.
